The text below walks through data of patent publication EP1202120A2, “Charge transport compound, elctrophotographic organophotoreceptor comprising the same, and electrographic imaging apparatus and method” (SAMSUNG ELECTRONICS CO., LTD., priority 2000, dated 2002).

Structures are written as SMILES. Entries after “also recorded” stand apart in the source; their conditions may differ.

A short description of one data set: Solubility testing in tetrahydrofuran at room temperature. The following applies: tetrahydrofuran as solvent.
Experimental: Solubility testing was performed for individual charge transport compounds at room temperature using tetrahydrofuran as a solvent. The solubility was determined as the percent solids of saturated solution. In general, it is desirable to maximize the solubility value.
As to `CCCCn1c2ccccc2c2cc(/C=N/N(CCCCCCN(/N=C/c3ccc4c(c3)c3ccccc3n4CCCC)c3ccccc3)c3ccccc3)ccc21` [H], the Solubility entry is recorded as “limited solubility; also recorded: Insoluble”.

The next data set is described as follows: Ionization potential by electron photoemission in air. It is filed as physicochemical. Conditions: CTM layer without binder; error ±0.03 eV. The method, then: Samples for ionization potential (Ip) measurements were prepared by dissolving compounds (B), (C), (E), (F), (G), and (H) and Comparative Example A separately in tetrahydrofuran. Each solution was hand-coated on an aluminized polyester substrate that was precision coated with a methylcellulose-based adhesive sub-layer to form a charge transport material (CTM) layer. The role of this sub-layer was to improve adhesion of the CTM layer, to retard crystallization of CTM, and to eliminate the electron photoemission from the Al layer through possible CTM layer defects. No photoemission was detected from the Al layer through the sub-layer at illumination with up to 6.4 eV quantum energy light. In addition, the adhesive sub-layer was conductive enough to avoid charge accumulation on it during measurement. The thickness of both the sub-layer and CTM layer was about 0.4 µm. No binder material was used in the preparation of the samples for Ip measurements. In most cases, the thin CTM layers were in a meta-stable amorphous phase, delaying crystallization for several hours, so that the measurement of the samples was possible.
The ionization potential was measured by the electron photoemission in an air method similar to that described in "Ionization Potential of Organic Pigment Film by Atmospheric Photoelectron Emission Analysis", Electrophotography, 28, No. 4, p. 364. (1989) by E. Miyamoto, Y. Yamaguchi, and M. Yokoyama, which is hereby incorporated by reference. The samples were illuminated with monochromatic light from a quartz monochromator with a deuterium lamp source. The power of the incident light beam was 2-5×10^-8 W. The negative voltage of -300 V was supplied to the sample substrate. The counter-electrode with the 4.5×15 mm^2 slit for illumination was placed at 8 mm distance from the sample surface. The counter-electrode was connected to the input of the BK2-16 type electrometer, working in the open input regime, for the photocurrent measurement. A photocurrent of 10^-15-10^-12 amp was flowed in the circuit under illumination. The photocurrent, I, was strongly dependent on the incident light photon energy hν. The I^0.5=f(hν) dependence was plotted. Usually the dependence of the square root of photocurrent on incident light quantum energy is well described by linear relationship near the threshold [see references "Ionization Potential of Organic Pigment Film by Atmospheric Photoelectron Emission Analysis", Electrophotography, 28, No. 4, p. 364. (1989) by E. Miyamoto, Y. Yamaguchi, and M. Yokoyama; and "Photoemission in Solids", Topics in Applied Physics, 26, 1-103. (1978) by M. Cordona and L. Ley]. The linear part of this dependence was extrapolated to the hν axis, and Ip value was determined as the photon energy at the interception point.
With `CCn1c2ccccc2c2cc(C=NN(CCCCCCCCCCN(N=Cc3ccc4c(c3)c3ccccc3n4CC)c3ccccc3)c3ccccc3)ccc21` [B], the “lp (ionization potential)” value amounted to 5.44 eV.
`CCn1c2ccccc2c2cc(C=NN(CCCCCN(N=Cc3ccc4c(c3)c3ccccc3n4CC)c3ccccc3)c3ccccc3)ccc21` [C]: the “lp (ionization potential)” value was found to be 5.34 eV.
On the same count and under the same terms, then `CCCCCCCn1c2ccccc2c2cc(C=NN(CCCCCCCCCCN(N=Cc3ccc4c(c3)c3ccccc3n4CCCCCCC)c3ccccc3)c3ccccc3)ccc21` [E], with 5.38 eV; and `CCCCCCCn1c2ccccc2c2cc(C=NN(CCCCCN(N=Cc3ccc4c(c3)c3ccccc3n4CCCCCCC)c3ccccc3)c3ccccc3)ccc21` [F], with 5.23 eV.
On the same count and under the same terms, then `CCCCn1c2ccccc2c2cc(/C=N/N(CCCCCCN(/N=C/c3ccc4c(c3)c3ccccc3n4CCCC)c3ccccc3)c3ccccc3)ccc21` [H], with 5.35, layer with crystal inclusions eV.

Another data set is described as follows: Thermal transitions by differential scanning calorimetry (glass transition temperature). It is filed as physicochemical. Conditions: mixture with Polycarbonate Z binder, DSC. How it is done: Thermal transition data for various charge transport compounds was collected using a TA Instruments Model 2929 Differential Scanning Calorimeter (New Castle, DE) equipped with a DSC cooling system (-70°C minimum temperature limit), and dry helium and nitrogen exchange gases. The calorimeter ran on a Thermal Analyst 2100 workstation with version 8.10B software. An empty aluminum pall was used as the reference.
Samples were tested both neat and as a mixture with Polycarbonate Z ("PCZ"). The neat samples were prepared by placing 4.0 to 8.0 mg of neat charge transport material into an aluminum sample pan and crimping the upper lid to produce a hermetically sealed sample for DSC testing. The results were normalized on a unit mass basis.
The Polycarbonate Z-mixed samples were prepared by filling the bottom portion of the aluminum sample pan with a 15-20% solid solution of the charge transport material in Polycarbonate Z, followed by air-drying overnight. Each air-dried sample was then placed in a convection oven at 50-55°C for 24-48 hours to fully remove the solvent, after which the upper sample lid was crimped on to produce a sealed sample for DSC testing. Each sample size was in the range of 7.0-15.0 mg. The results were normalized on a unit mass basis.
Each sample was subjected to the following protocol to evaluate its thermal transition behavior: • 1. Equilibrate at 0°C (Default--Nitrogen Heat Exchange Gas); • 2. Isothermal for 5 min.; • 3. External Event: Nitrogen Heat Exchange Gas; • 4. Ramp 10.0°C/min to a temperature 30°C above the melting point of the charge transport material; • 5. External Event: Helium Heat Exchange Gas; • 6. Isothermal for 5 min.; • 7. Ramp 10.0°C/min to 0°C; • 8. External Event: Nitrogen Heat Exchange Gas; • 9. Isothermal for 5 min.; • 10. Ramp 10.0°C/min to a temperature 40°C above the melting point of the charge transport material; • 11. External Event: Helium Heat Exchange Gas; • 12. Isothermal for 5 min.; • 13. Ramp 10.0°C/min to 0°C; • 14. External Event: Nitrogen Heat Exchange Gas; • 15. Isothermal for 5 min; • 16. Ramp 10.0°C/min to 275°C.
The first cycle (steps 1-7) is used to (a) remove the thermal history of the sample, (b) obtain the melting transition for crystalline charge transport materials, and (c) obtain a homogeneous charge transport material/Polycarbonate Z mixture in the event the charge transport material is crystallized during sample preparation. A homogeneous mixture can be obtained as long as the charge transport material (molten or casted) is miscible with the Polycarbonate-Z.
The second cycle (steps 8-13) is used to identify the glass transition temperature and the recrystallization or melting transitions of charge transport materials.
The third cycle (steps 14-16) is used to report the final thermal transitions.
All temperatures are reported in °C. The abbreviation "CTM" indicates charge transport compounds. The abbreviation "PCZ" indicates the Polycarbonate Z binder.
A general note: In DSC, transitions show as peaks or steps in heat flow.
On to `CCn1c2ccccc2c2cc(C=NN(CCCCCCCCCCN(N=Cc3ccc4c(c3)c3ccccc3n4CC)c3ccccc3)c3ccccc3)ccc21` [B], for which the “Tg with 50% PCZ” value amounted to 83.7 °C.
On the same count and under the same terms, then `CCn1c2ccccc2c2cc(C=NN(CCCCCN(N=Cc3ccc4c(c3)c3ccccc3n4CC)c3ccccc3)c3ccccc3)ccc21` [C], with 102.5 °C; and `CCCCCCCn1c2ccccc2c2cc(C=NN(CCCCCCCCCCN(N=Cc3ccc4c(c3)c3ccccc3n4CCCCCCC)c3ccccc3)c3ccccc3)ccc21` [E], with 56.9 °C.
Still for that read-out and setting: to `CCCCCCCn1c2ccccc2c2cc(C=NN(CCCCCN(N=Cc3ccc4c(c3)c3ccccc3n4CCCCCCC)c3ccccc3)c3ccccc3)ccc21` [F] belongs 78.3 °C.

The same data set, now with this note: neat sample, DSC.
Compound `CCn1c2ccccc2c2cc(C=NN(CCCCCCCCCCN(N=Cc3ccc4c(c3)c3ccccc3n4CC)c3ccccc3)c3ccccc3)ccc21` [B] came in with a Tg without binder of 46 °C.
The compound `CCn1c2ccccc2c2cc(C=NN(CCCCCN(N=Cc3ccc4c(c3)c3ccccc3n4CC)c3ccccc3)c3ccccc3)ccc21` [C] came in with a Tg without binder of 84.4 °C.
Same read-out and setting: to `CCn1c2ccccc2c2cc(C=NN(CCCCN(N=Cc3ccc4c(c3)c3ccccc3n4CC)c3ccccc3)c3ccccc3)ccc21` [D] belongs 79.1 °C; to `CCCCCCCn1c2ccccc2c2cc(C=NN(CCCCCCCCCCN(N=Cc3ccc4c(c3)c3ccccc3n4CCCCCCC)c3ccccc3)c3ccccc3)ccc21` [E], 29.3 °C.
Consider `CCCCCCCn1c2ccccc2c2cc(C=NN(CCCCCN(N=Cc3ccc4c(c3)c3ccccc3n4CCCCCCC)c3ccccc3)c3ccccc3)ccc21` [F], for which the Tg without binder is 44.5 °C.
